Reference: patent publication US8124793B2, “Derivatives of ethylene methanedisulfonate as cancer chemotherapeutic agents” (priority 2007, dated 2012)

Tests used:
[1] = system: MOLT-4; experiment: NCI screen, growth of human tumor cells: Leukemia MOLT-4; format: cell-based; settings: MOLT-4 (Leukemia), 10^−4 molar
Summary of the method: (§1)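 The NCI screen tests each compound on human cancer cell lines and reports percent growth. Concentrations are given in molar units; the number of data points per compound is sixty at minimum.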

[2] = system: AS49/ATCC; experiment: NCI screen, growth of human tumor cells: Non-Small Cell Lung AS49/ATCC; format: cell-based; settings: AS49/ATCC (Non-Small Cell Lung), 10^−4 molar
Summary of the method: as §1

[3] = system: CCRF-CEM; experiment: NCI screen, growth of human tumor cells: Leukemia CCRF-CEM; format: cell-based; settings: CCRF-CEM (Leukemia), 10^−4 molar
Summary of the method: as §1

[4] = system: M14; experiment: NCI screen, growth of human tumor cells: Melanoma M14; format: cell-based; settings: M14 (Melanoma), 10^−4 molar
Summary of the method: as §1

[5] = system: HT29; experiment: NCI screen, growth of human tumor cells: Colon Cancer HT29; format: cell-based; settings: HT29 (Colon Cancer), 10^−4 molar
Summary of the method: as §1

[6] = system: UACC-62; experiment: NCI screen, growth of human tumor cells: Melanoma UACC-62; format: cell-based; settings: UACC-62 (Melanoma), 10^−4 molar
Summary of the method: as §1

[7] = system: SNB-75; experiment: NCI screen, growth of human tumor cells: CNS Cancer SNB-75; format: cell-based
Summary of the method: as §1

[8] = system: UO-31; experiment: NCI screen, growth of human tumor cells: Renal Cancer UO-31; format: cell-based; settings: UO-31 (Renal Cancer), 10^−4 molar
Summary of the method: as §1

[9] = system: SF-295; experiment: NCI screen, growth of human tumor cells: CNS Cancer SF-295; format: cell-based; settings: SF-295 (CNS Cancer), 10^−4 molar
Summary of the method: as §1

[10] = system: HOP-62; experiment: NCI screen, growth of human tumor cells: Non-Small Cell Lung HOP-62; format: cell-based; settings: HOP-62 (Non-Small Cell Lung), 10^−4 molar
Summary of the method: as §1

[11] = system: HCT-15; experiment: NCI screen, growth of human tumor cells: Colon Cancer HCT-15; format: cell-based; settings: HCT-15 (Colon Cancer), 10^−4 molar
Summary of the method: as §1

[12] = system: K562; experiment: NCI screen, growth of human tumor cells: Leukemia K562; format: cell-based; settings: K562 (Leukemia), 10^−4 molar
Summary of the method: as §1

[13] = system: SN12C; experiment: NCI screen, growth of human tumor cells: Renal Cancer SN12C; format: cell-based; settings: SN12C (Renal Cancer), 10^−4 molar
Summary of the method: as §1

[14] = system: ACHN; experiment: NCI screen, growth of human tumor cells: Renal Cancer ACHN; format: cell-based; settings: ACHN (Renal Cancer), 10^−4 molar
Summary of the method: as §1

[15] = system: HL-60 (TB); experiment: NCI screen, growth of human tumor cells: Leukemia HL-60 (TB); format: cell-based; settings: HL-60 (TB) (Leukemia), 10^−4 molar
Procedure: (§2) In the NCI screening process, each compound was tested and described by a minimum of 60 data points. The test data include, but are not limited to the type of cancer, the molar concentration used in the screen, and the percent growth of the cancer. In some cases, NMR and elemental analysis were used for structural assignment.

[16] = system: RXF-393; experiment: NCI screen, growth of human tumor cells: Renal Cancer RXF-393; format: cell-based; settings: RXF-393 (Renal Cancer), 10^−4 molar
Summary of the method: as §1

[17] = system: MDA-N; experiment: NCI screen, growth of human tumor cells: Breast Cancer MDA-N; format: cell-based; settings: 10^−4 molar
Procedure: as §2

[18] = system: CAKI-1; experiment: NCI screen, growth of human tumor cells: Renal Cancer CAKI-1; format: cell-based; settings: CAKI-1 (Renal Cancer), 10^−4 molar
Summary of the method: as §1

[19] = system: LOXIMVI; experiment: NCI screen, growth of human tumor cells: Melanoma LOXIMVI; format: cell-based; settings: LOXIMVI (Melanoma), 10^−4 molar
Summary of the method: as §1

[20] = system: HCT-116; experiment: NCI screen, growth of human tumor cells: Colon Cancer HCT-116; format: cell-based; settings: HCT-116 (Colon Cancer), 10^−4 molar
Summary of the method: as §1

[21] = system: SF-539; experiment: NCI screen, growth of human tumor cells: CNS Cancer SF-539; format: cell-based; settings: SF-539 (CNS Cancer), 10^−4 molar
Summary of the method: as §1

[22] = system: RPMI-8226; experiment: NCI screen, growth of human tumor cells: Leukemia RPMI-8226; format: cell-based; settings: RPMI-8226 (Leukemia), 10^−4 molar
Summary of the method: as §1

[23] = system: NCI-H522; experiment: NCI screen, growth of human tumor cells: Non-Small Cell Lung NCI-H522; format: cell-based; settings: NCI-H522 (Non-Small Cell Lung), 10^−4 molar
Summary of the method: as §1

[24] = system: OVCAR-4; experiment: NCI screen, growth of human tumor cells: Ovarian Cancer OVCAR-4; format: cell-based; settings: OVCAR-4 (Ovarian Cancer), 10^−4 molar
Summary of the method: as §1

[25] = system: NCI-H460; experiment: NCI screen, growth of human tumor cells: Non-Small Cell Lung NCI-H460; format: cell-based
Summary of the method: as §1

[26] = system: IGROVI; experiment: NCI screen, growth of human tumor cells: Ovarian Cancer IGROVI; format: cell-based; settings: IGROVI (Ovarian Cancer), 10^−4 molar
Summary of the method: as §1

[27] = system: UACC-257; experiment: NCI screen, growth of human tumor cells: Melanoma UACC-257; format: cell-based; settings: UACC-257 (Melanoma), 10^−4 molar
Summary of the method: as §1

[28] = system: MCF 7; experiment: NCI screen, growth of human tumor cells: Breast Cancer MCF 7; format: cell-based; settings: MCF 7 (Breast Cancer), 10^−4 molar
Summary of the method: as §1

[29] = system: OVCAR-3; experiment: NCI screen, growth of human tumor cells: Ovarian Cancer OVCAR-3; format: cell-based; settings: OVCAR-3 (Ovarian Cancer), 10^−4 molar
Summary of the method: as §1

[30] = system: 786-0; experiment: NCI screen, growth of human tumor cells: Renal Cancer 786-0; format: cell-based; settings: 786-0 (Renal Cancer), 10^−4 molar
Summary of the method: as §1

[31] = system: KM12; experiment: NCI screen, growth of human tumor cells: Colon Cancer KM12; format: cell-based; settings: KM12 (Colon Cancer), 10^−4 molar
Summary of the method: as §1

[32] = system: SF-268; experiment: NCI screen, growth of human tumor cells: CNS Cancer SF-268; format: cell-based; settings: SF-268 (CNS Cancer), 10^−4 molar
Summary of the method: as §1

[33] = system: DU-145; experiment: NCI screen, growth of human tumor cells: Prostate Cancer DU-145; format: cell-based; settings: DU-145 (Prostate Cancer), 10^−4 molar
Summary of the method: as §1

[34] = system: SK-MEL-5; experiment: NCI screen, growth of human tumor cells: Melanoma SK-MEL-5; format: cell-based; settings: SK-MEL-5 (Melanoma), 10^−4 molar
Summary of the method: as §1

[35] = system: human cancer cells; experiment: NCI screen summary over the cancers tested (negative growth of human cancer cells); format: cell-based; settings: 10^−4 M conc.; cancers with negative growth / cancers tested
Procedure: as §2
The derivatives in the tables are grouped using the same category as in the tables 1-6.

[36] = system: HS 578T; experiment: NCI screen, growth of human tumor cells: Breast Cancer HS 578T; format: cell-based; settings: HS 578T (Breast Cancer), 10^−4 molar
Summary of the method: as §1

[37] = system: MCF7/ADR-RES; experiment: NCI screen, growth of human tumor cells: Breast Cancer MCF7/ADR-RES; format: cell-based; settings: MCF7/ADR-RES (Breast Cancer), 10^−4 molar
Summary of the method: as §1

[38] = system: SK-OV-3; experiment: NCI screen, growth of human tumor cells: Ovarian Cancer SK-OV-3; format: cell-based; settings: SK-OV-3 (Ovarian Cancer), 10^−4 molar
Summary of the method: as §1

[39] = system: OVCAR-8; experiment: NCI screen, growth of human tumor cells: Ovarian Cancer OVCAR-8; format: cell-based; settings: OVCAR-8 (Ovarian Cancer), 10^−4 molar
Summary of the method: as §1

SMILES: O=S1(=O)OCCOS(=O)(=O)C1C1c2ccccc2-c2ccccc21 [NSC 686562, ethylene 9-fluorenylmethanedisulfonate]
- percent of growth of human tumor cells [1]: −32%
- percent of growth of human tumor cells [2]: 30%
- percent of growth of human tumor cells [3]: −3%
- percent of growth of human tumor cells [4]: 23%
- percent of growth of human tumor cells [5]: 26%
- percent of growth of human tumor cells [6]: 10%
- % Growth ([7]; SNB-75, 10^−4 molar): −28%
- % Growth ([7]; SNB-75, 10^−5 molar): 28%
- % Growth ([7]; SNB-75, 10^−6 molar): 64%
- percent of growth of human tumor cells [8]: −3%
- percent of growth of human tumor cells [9]: 22%
- percent of growth of human tumor cells [10]: 5%
- percent of growth of human tumor cells [11]: 15%
- percent of growth of human tumor cells [12]: 16%
- percent of growth of human tumor cells [13]: 28%
- percent of growth of human tumor cells [14]: 9%
- percent of growth of human tumor cells [15]: −20%
- melting point: 118 to 124 °C
- percent of growth of human tumor cells [16]: 25%
- percent of growth of human tumor cells [17]: 17%
- percent of growth of human tumor cells [18]: −1%
- percent of growth of human tumor cells [19]: −27%
- percent of growth of human tumor cells [20]: 0%
- percent of growth of human tumor cells [21]: 10%
- percent of growth of human tumor cells [22]: 9%
- percent of growth of human tumor cells [23]: −19%
- percent of growth of human tumor cells [24]: −39%
- % Growth ([25]; NCI-H460, 10^−4 molar): −50%
- % Growth ([25]; NCI-H460, 10^−5 molar): 56%
- percent of growth of human tumor cells [26]: 16%
- percent of growth of human tumor cells [27]: 28%
- percent of growth of human tumor cells [28]: 23%
- percent of growth of human tumor cells [29]: 25%
- percent of growth of human tumor cells [30]: 2%
- percent of growth of human tumor cells [31]: 22%
- percent of growth of human tumor cells [32]: 29%
- percent of growth of human tumor cells [33]: 9%
- percent of growth of human tumor cells [34]: 4%
- Percentage of cancers showing negative growth cancers tested [35]: 10^−4 M conc. = 11/38 = 29%
- percent of growth of human tumor cells [36]: 24%
- percent of growth of human tumor cells [37]: −7%
- percent of growth of human tumor cells [38]: 25%
- percent of growth of human tumor cells [39]: 29%
